# In publication PMC12715756 (ACS Chemical Neuroscience, 2025):
# System: male Swiss CD-1 mice
# Test: Core body temperature
# Format: in vivo
# Conditions: 10 mg/kg i.p., 22 ± 1 °C and 28 ± 1 °C, compared with MDMA and SDMA
# Experimental: Male Swiss CD-1 mice (Janvier, Le Genest, France), weighing 30–35 g and aged 6–8 weeks, were used for HLA, thigmotaxis, CPP, and core body temperature experiments. Animals were housed under temperature-controlled conditions (22 ± 1 °C) with a 12 h light/dark cycle and had free access to food and water (standard laboratory diet, Panlab SL, Barcelona, Spain). Doses for HLA, thigmotaxis, CPP, and core body temperature experiments were calculated based on the free base form of each compound. For HTR experiments, male C57BL/6J mice (6–8 weeks old) were obtained from Jackson Laboratories (Bar Harbor, ME, USA) and housed up to four per cage with a reversed light-cycle (lights on at 1900 h, off at 0700 h). Food and water were provided ad libitum, except during behavioral testing. Testing was conducted between 1000 and 1830 h. Doses for HTR experiments were calculated based on the respective salt forms of the compounds.
# Changes in body temperature were measured by means of subcutaneously implanted temperature transponders (IPTT-300; Bio Medic Data Systems, Inc., DE, USA). Seven mice were used per group. […] Subsequently, core body temperature measures were taken for 1 h, every 10 min before administration, using a DAS-8007 Wireless Reader System (Bio Medic Data Systems, Inc.), to establish a baseline. […]
smiles,measurement,value
"CC(N)Cc1ccc2c(c1)SCO2 (stereo not shown) [SDA, 1-(1,3-benzoxathiol-5-yl)propan-2-amine]",core body temperature changes,significantly increased and prolonged core temperature changes
